Data taken from US5833994A, “Use of the AH receptor and AH receptor ligands to treat or prevent cytopathicity of viral infection” (Paracelsian, Inc., priority 1997, dated 1998).
“Also recorded” adds a separate entry of the source. Where two headings read alike, the source gives them in different places.

Legend:
[1] = test system: HIV envelope gp120/41-induced syncytia formation in CD4+T cell lines (HIVenv 2-8 co-culture); assay: Inhibition of HIVenv 2-8-induced syncytia formation / cell death (HIV-1 co-culture assay); type: cell-based; conditions: for Estimated IC50 (Syncitia Quantification), inhibition of HIV-induced cytopathicity: Table 1
Method: Sourcing of Ah Receptor Ligands: The Ah receptor ligands 2,3,7,8-Tetrachlorodibenzo-p-dioxin, 3,3',4,4',5-Pentachlorobiphenyl, 3,3',4,'4-Tetrachlorobiphenyl, and 2-Monochlorodibenzo-p-dioxin compounds were purchased from Accustandard (Cambridge, Mass.). α-naphthoflavone was purchased from Sigma (St. Louis, Mo.). Stock solutions of each compound were prepared by dissolution in DMSO at a 1000X concentration, i.e. the highest concentration tested was diluted by 1000-fold.
Bioassay Procedure: The cell lines utilized in the assay protocol include the following: HIVenv 2-2 (non-cytopathic), HIVenv 2-8 (cytopathic), Jurkat CD4+T cell line (clone E6-1), and SupT1. Cell lines were cultured in RPMI medium (Gibco, Grand Island, N.Y.) supplemented with L-glutamine (Sigma, St. Louis, Mo.) and 10% FBS-HI (Intergen). The Jurkat CD4+T cell line was obtained from American Type Culture Collection (Bethesda, Md.). All other cell lines were obtained from the National Institutes of Health. The HIVenv 2-2 or HIVenv 2-8 cells were plated with both CD4+T cell lines (1×10^3 cells per cell line in 16 μL of media.) in a 96-well tissue culture plate containing 50 μL of media with compound to be tested yielding a final volume of approximately 100 μL. The plates were then gently shaken to ensure adequate mixing of the assay components. Cells were then co-cultured at 5% CO2, 37C., and 95% humidity for 24 to 48 hours. The time points were chosen for the convenience, cytopathic changes become evident in the cell cultures used within a 2 to 4 hour period, becoming more and more prominent with time.
Data Reduction for this ELISA: HIVenv 2-2 co-culture ELISA values are used as the background for HIVenv 2-8 co-culture values. Dose responses are then plotted with dose along the x-axis and the background corrected optical density values on the y-axis.
Positive and Negative Controls: The use of the HIVenv 2-2 cell line serves as a negative control for induction of cytopathicity.
(§1) Interpretation of the Test: A positive response was defined as a dose-related decrease in syncytia formation in excess of 50% compared to HIVenv 2-8 co-cultures alone. Calculation of median effective doses was estimated by visual observation and by quantification of syncitia in 10X power microscope fields.
The Materials and Methods used in the testing of the various dibenzofuran compounds were the same as those used in Example 1 above. This includes the use of the same controls, cell lines, and assay procedures.
as §1, with “fields. Another procedure which provides data similar to the Bioassay procedure just described allows for quantification of changes in the co-culture cells through an ELISA method, not as reliant on visual observation. […]” for “fields.”

Ah receptor [2] = biological target: T1, Ah receptor (Cavia porcellus, UniProt Q6J287); assay: Inhibition of Ah receptor transformation, antagonist test (Ah-immunoassay, 0.5 nM TCDD); conditions: for Test as antagonist, Milli O.D at 405: 0.5 nM TCDD; for binding or interaction with the Ah receptor (words): with and without 0.5 nM TCDD
T1 sequence (Q6J287 1-846): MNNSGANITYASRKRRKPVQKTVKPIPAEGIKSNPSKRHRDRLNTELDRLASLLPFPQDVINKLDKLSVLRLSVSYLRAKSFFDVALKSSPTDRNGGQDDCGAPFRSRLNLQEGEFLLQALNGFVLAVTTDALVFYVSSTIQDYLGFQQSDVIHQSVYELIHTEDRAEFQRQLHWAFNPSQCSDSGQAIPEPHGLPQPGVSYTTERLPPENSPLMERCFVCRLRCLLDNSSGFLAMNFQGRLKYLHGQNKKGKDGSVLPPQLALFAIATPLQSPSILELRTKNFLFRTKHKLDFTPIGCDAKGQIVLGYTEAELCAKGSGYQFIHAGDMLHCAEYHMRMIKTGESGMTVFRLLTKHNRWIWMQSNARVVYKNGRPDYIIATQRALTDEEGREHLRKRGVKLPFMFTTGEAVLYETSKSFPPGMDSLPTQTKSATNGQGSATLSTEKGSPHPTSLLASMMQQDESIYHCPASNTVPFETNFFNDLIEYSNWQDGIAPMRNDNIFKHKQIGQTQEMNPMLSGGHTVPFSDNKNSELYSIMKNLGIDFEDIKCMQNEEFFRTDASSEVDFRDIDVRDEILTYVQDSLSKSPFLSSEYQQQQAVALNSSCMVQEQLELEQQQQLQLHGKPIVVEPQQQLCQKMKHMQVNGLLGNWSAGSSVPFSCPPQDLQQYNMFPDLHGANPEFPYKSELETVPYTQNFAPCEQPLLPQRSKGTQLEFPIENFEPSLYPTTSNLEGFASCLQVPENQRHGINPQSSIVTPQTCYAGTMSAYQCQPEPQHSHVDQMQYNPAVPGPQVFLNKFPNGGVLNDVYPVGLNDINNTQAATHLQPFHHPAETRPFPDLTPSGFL
Method: Cytosol was prepared as described in methods and treated with TCDD, DMSO or TCM extract to make 1) 0.5 nM TCDD, 2) 0.1% DMSO, or 3) 500 μg/mL TCM extract, respectively. The treated cytosol was serially diluted in a neutravidin-coated ELISA plate (Pierce, Rockford, Ill.). […] To treat for Ah receptor agonist activity, extracts were diluted in 0.5 nM TCDD treated cytosol to 250, 125, and 62.5 μg/mL of TCM extracts.
Ten mL aliquots of cytosol were thawed and pooled, generally 20 mL per ELISA plate. For each 20 mL of cytosol, 10 μL of thawed DRE stock and 1 mL HEDG in 4M NaCl were added.
0.5 nM TCDD Diluent for extracts (detection of antagonists): The cytosol is treated with 1 μl of 1 μM TCDD per 2 mL cytosol (0.5 nm).
500 μg/mL extracts (detection of antagonists): 1 μL of test extract (500 mg/mL in DMSO) in 1 mL 0.5 nM TCDD-treated cytosol (500 μg/mL final concentration of extract in cytosol).
Serial dilution's of the extracts and/or TCDD treated cytosol into DMSO-treated cytosol are done as required by the experiment and are described in the examples.
The ELISA plate containing the treated cytosol is incubated with gentle rocking for 2 hours at 30° C. to allow the transformation of Ah receptor, binding of Ah receptor with ARNT, and binding of the Ah receptor/ARNT complex to the biotinylated DRE, and binding of the biotinylated DRE to the neutravidin bound to the ELISA plate.
After 2 hours the plate is washed 3 times with 400 μL TBS plus 0.02% Tween 20 per well per wash and 200 μL of the working dilution of anti-ARNT added to all wells. The plate is again incubated with gentle rocking at 30° C. for 1 hour. After 1 hour the plate is washed as before and a working dilution (1:4000) of anti-rabbit/alkaline phosphatase conjugate is added to all wells. The plate is incubated for a further 1 hour at 30° C. with gentle rocking and then washed as before. PNPP stock is added to each well (200 μL) and the plate is incubated for 1 hour at 30° C., at which time it is read at 405 nm in an ELISA plate reader and the milli O.D.'s of the wells are recorded.
TCM extracts were tested for their ability to inhibit the transformation of the Ah receptor.

Ah receptor [3] = biological target: T1, Ah receptor; assay: Ah receptor transformation, agonist test (Ah-immunoassay, absence of TCDD); type: biochemical, Guinea pig; conditions: absence of TCDD
Method: Cytosol was prepared as described above.
Diluent for TCDD dose response, diluent for extracts (detection of agonists), and negative control: The cytosol is treated with 1 μL DMSO per 1 mL cytosol (-).
1 nM TCDD treated, positive control. […] DMSO diluent for detection of agonists: the cytosol is treated with μL DMSO per 1 mL cytosol. (1 nm final concentration of TCDD).

[4] = test system: HIV; viruses; tumors; liver; conditions: cited from earlier work

Clc1ccc(-c2cc(Cl)c(Cl)c(Cl)c2)cc1Cl [3,3',4,4',5-PCB, 3,3',4,4',5-pentachlorobiphenyl]
inhibition of syncytia formation / cytopathicity [1]: correspondingly weaker activity
Estimated IC50 (Syncitia Quantification), inhibition of HIV-induced cytopathicity [1]: 100 nM

Cc1cc(Cl)cc2c1oc1cc(Cl)cc(Cl)c12 [6-methyl,1,3,8-trichlorodibenzofuran]
Estimated IC50 (Syncitia Quantification), inhibition of HIV-induced cytopathicity [1]: 200 nM

CC(C)(C)c1cc(Cl)cc2c1oc1cc(Cl)cc(Cl)c12 [6-t-butyl,1,3,8-trichlorodibenzofuran]
Estimated IC50 (Syncitia Quantification), inhibition of HIV-induced cytopathicity [1]: 1500 nM

Clc1cc2c(cc1Cl)Oc1c(Cl)c(Cl)c(Cl)c(Cl)c1O2 [1,2,3,4,7,8-HCDD]
Estimated IC50 (Syncitia Quantification), inhibition of HIV-induced cytopathicity [1]: No Inhibition Observed

CCCc1cc(Cl)cc2c1oc1cc(Cl)cc(Cl)c12 [6-propyl,1,3,8-trichlorodibenzofuran]
Estimated IC50 (Syncitia Quantification), inhibition of HIV-induced cytopathicity [1]: 500 nM

O=[N+]([O-])c1cc(Cl)cc2c1oc1cc(Cl)cc(Cl)c12 [6-nitro 1,3,8-trichlorodibenzofuran]
inhibition of syncytia formation / cytopathicity [1]: slightly less antagonistic activity
Estimated IC50 (Syncitia Quantification), inhibition of HIV-induced cytopathicity [1]: 500 nM

C=C1CC[C@@H]2[C@](C)(CO)[C@H](O)CC[C@@]2(C)[C@@H]1C/C=C1/C(=O)OC[C@H]1O [Andrographolide, andrographolide]
Test as antagonist, Milli O.D at 405 (Ah receptor [2]; Table 11, 0.313 μg/mL): 1457 Milli O.D
Test as antagonist, Milli O.D at 405 (Ah receptor [2]; Table 11, 0.625 μg/mL): 1402 Milli O.D
Test as antagonist, Milli O.D at 405 (Ah receptor [2]; Table 11, 1.25 μg/mL): 1437 Milli O.D
Test as antagonist, Milli O.D at 405 (Ah receptor [2]; Table 11, 2.5 μg/mL): 1416 Milli O.D
Test as antagonist, Milli O.D at 405 (Ah receptor [2]; Table 11, 5 μg/mL): 1421 Milli O.D
Test as antagonist, Milli O.D at 405 (Ah receptor [2]; Table 11, 10 μg/mL): 1164 Milli O.D
binding or interaction with the Ah receptor (words) (Ah receptor [2]): does not interact or inhibit the Ah receptor
binding or interaction with the Ah receptor (words) (Ah receptor [2]; listed as andrographolide): does not bind the Ah receptor; also recorded: non-Ah receptor binding
Test as agonist, Milli O.D at 405 (Ah receptor [3]; Table 11, 0.313 μg/mL): 49.5 Milli O.D
Test as agonist, Milli O.D at 405 (Ah receptor [3]; Table 11, 0.625 μg/mL): 43 Milli O.D
Test as agonist, Milli O.D at 405 (Ah receptor [3]; Table 11, 1.25 μg/mL): 59.5 Milli O.D
Test as agonist, Milli O.D at 405 (Ah receptor [3]; Table 11, 2.5 μg/mL): 54.5 Milli O.D
Test as agonist, Milli O.D at 405 (Ah receptor [3]; Table 11, 5 μg/mL): 55 Milli O.D
Test as agonist, Milli O.D at 405 (Ah receptor [3]; Table 11, 10 μg/mL): 47 Milli O.D
pharmacological activity (words) [4]: anti-tumor activity
pharmacological activity (words) ([4]; listed as andrographolide): anti-HIV effects; also recorded: anti-viral, anti-neoplastic and hepatoprotective properties

CCc1cc(Cl)cc2c1oc1cc(Cl)cc(Cl)c12 [6-ethyl,1,3,8-trichlorodibenzofuran]
Estimated IC50 (Syncitia Quantification), inhibition of HIV-induced cytopathicity [1]: 1000 nM

Clc1cc2oc3cc(Cl)c(Cl)cc3c2cc1Cl [2,3,7,8-TCDF]
Estimated IC50 (Syncitia Quantification), inhibition of HIV-induced cytopathicity [1]: 80 nM

CC1(C)CC[C@]2(C(=O)O)CC[C@]3(C)C(=CC[C@@H]4[C@@]5(C)CC[C@H](O)C(C)(C)[C@@H]5CC[C@]43C)[C@@H]2C1 [Oleanolic Acid]
Test as antagonist, Milli O.D at 405 (Ah receptor [2]; Table 11, 0.313 μg/mL): 1493 Milli O.D
Test as antagonist, Milli O.D at 405 (Ah receptor [2]; Table 11, 0.625 μg/mL): 1444 Milli O.D
Test as antagonist, Milli O.D at 405 (Ah receptor [2]; Table 11, 1.25 μg/mL): 1438 Milli O.D
Test as antagonist, Milli O.D at 405 (Ah receptor [2]; Table 11, 2.5 μg/mL): 1462 Milli O.D
Test as antagonist, Milli O.D at 405 (Ah receptor [2]; Table 11, 5 μg/mL): 1423 Milli O.D
Test as antagonist, Milli O.D at 405 (Ah receptor [2]; Table 11, 10 μg/mL): 1143 Milli O.D
binding or interaction with the Ah receptor (words) (Ah receptor [2]): non-Ah receptor binding
Test as agonist, Milli O.D at 405 (Ah receptor [3]; Table 11, 0.313 μg/mL): 48 Milli O.D
Test as agonist, Milli O.D at 405 (Ah receptor [3]; Table 11, 0.625 μg/mL): 19.5 Milli O.D
Test as agonist, Milli O.D at 405 (Ah receptor [3]; Table 11, 1.25 μg/mL): 49 Milli O.D
Test as agonist, Milli O.D at 405 (Ah receptor [3]; Table 11, 2.5 μg/mL): 49.5 Milli O.D
Test as agonist, Milli O.D at 405 (Ah receptor [3]; Table 11, 5 μg/mL): 49.5 Milli O.D
Test as agonist, Milli O.D at 405 (Ah receptor [3]; Table 11, 10 μg/mL): 50 Milli O.D

Clc1cc(Cl)c2c(c1)oc1c(C3CCCCC3)cc(Cl)cc12 [6-cyclohexyl,1,3,8-trichlorodibenzofuran]
Estimated IC50 (Syncitia Quantification), inhibition of HIV-induced cytopathicity [1]: 500 nM

Clc1ccc2c(c1)Oc1ccccc1O2 [Extract 2-MCDD, 2-Monochlorodibenzo-p-dioxin]
inhibition of syncytia formation / cytopathicity [1]: incapable of blocking the cytopathic effect
Estimated IC50 (Syncitia Quantification), inhibition of HIV-induced cytopathicity [1]: No Inhibition Observed

CC(C)c1cc(Cl)cc2c1oc1cc(Cl)cc(Cl)c12 [6-isopropyl,1,3,8-trichlorodibenzofuran]
inhibition of syncytia formation / cytopathicity [1]: slightly less antagonistic activity
Estimated IC50 (Syncitia Quantification), inhibition of HIV-induced cytopathicity [1]: 100 nM

CCCCc1cc(Cl)cc2c1oc1cc(Cl)cc(Cl)c12 [6-butyl,1,3,8-trichlorodibenzofuran]
Estimated IC50 (Syncitia Quantification), inhibition of HIV-induced cytopathicity [1]: 1500 nM

Cc1cc(Cl)cc2c1oc1cc(Cl)cc(Br)c12 [1-bromo,6-methyl,3,8-dichlorodibenzofuran]
inhibition of syncytia formation / cytopathicity [1]: most effective compound and strongest Ah receptor antagonist
Estimated IC50 (Syncitia Quantification), inhibition of HIV-induced cytopathicity [1]: 100 nM

Clc1ccc(-c2ccc(Cl)c(Cl)c2)cc1Cl [3,3',4,4'-TCB, 3,3',4,4'-tetrachlorobiphenyl]
inhibition of syncytia formation / cytopathicity [1]: correspondingly weaker activity
Estimated IC50 (Syncitia Quantification), inhibition of HIV-induced cytopathicity [1]: 35 nM
